Experimental data: the NIST ThermoML archive (doi:10.1016/j.jct.2009.11.003)
Several values for one entry are separate records, joined by “and”; a condition that tells them apart may be missing. Equal entries are not always repeated. ± gives the expanded uncertainty stated by the source.

Tests used:
[1] = molar enthalpy of vaporization or sublimation; details: Crystal, Static calorimetry
[2] = Crystal, Calculated from knudsen effusion weight loss

Nc1c(Cl)cc([N+](=O)[O-])cc1[N+](=O)[O-] [2-chloro-4,6-dinitrobenzenamine]
Details | molar enthalpy [kcal/mol] | vapor or sublimation pressure
[1], 298.15 K | 27.5 ± 0.526 | –
[1], 369.13 K | 27.3 ± 0.311 | –
[2], 358.1 K | – | 0.000105 ± 5e-06 kPa and 0.000103 ± 5e-06 kPa and 0.00011 ± 6e-06 kPa
[2], 360.15 K | – | 0.00013 ± 7e-06 kPa and 0.000133 ± 7e-06 kPa and 0.000128 ± 6e-06 kPa
[2], 362.16 K | – | 0.000164 ± 8e-06 kPa and 0.000161 ± 8e-06 kPa and 0.000173 ± 9e-06 kPa
[2], 364.12 K | – | 0.000202 ± 1e-05 kPa and 0.000198 ± 1e-05 kPa and 0.000197 ± 1e-05 kPa
[2], 366.17 K | – | 0.000246 ± 1.2e-05 kPa and 0.000248 ± 1.2e-05 kPa and 0.00024 ± 1.2e-05 kPa
[2], 368.17 K | – | 0.000302 ± 1.5e-05 kPa and 0.000297 ± 1.5e-05 kPa and 0.000296 ± 1.5e-05 kPa
[2], 370.11 K | – | 0.000361 ± 1.8e-05 kPa and 0.000368 ± 1.8e-05 kPa
[2], 372.08 K | – | 0.000455 ± 2.3e-05 kPa and 0.00044 ± 2.2e-05 kPa and 0.000426 ± 2.1e-05 kPa
[2], 374.14 K | – | 0.00055 ± 2.8e-05 kPa and 0.000536 ± 2.7e-05 kPa
[2], 376.25 K | – | 0.000684 ± 3.4e-05 kPa and 0.000662 ± 3.3e-05 kPa and 0.000663 ± 3.3e-05 kPa
[2], 378.14 K | – | 0.000816 ± 4.1e-05 kPa and 0.000824 ± 4.1e-05 kPa and 0.000797 ± 4e-05 kPa
[2], 380.16 K | – | 0.000996 ± 5e-05 kPa and 0.000971 ± 4.9e-05 kPa and 0.000963 ± 4.8e-05 kPa

Nc1c([N+](=O)[O-])cc(Cl)cc1[N+](=O)[O-] [4-chloro-2,6-dinitroaniline]
Details | molar enthalpy [kcal/mol] | vapor or sublimation pressure
[1], 298.15 K | 25.1 ± 0.406 | –
[1], 347.1 K | 25.02 ± 0.239 | –
[2], 335.12 K | – | 7.67e-05 ± 3.9e-06 kPa and 7.72e-05 ± 3.9e-06 kPa and 7.84e-05 ± 3.9e-06 kPa
[2], 338.19 K | – | 0.00011 ± 6e-06 kPa and 0.000108 ± 5e-06 kPa and 0.000106 ± 5e-06 kPa
[2], 341.17 K | – | 0.00015 ± 8e-06 kPa and 0.000145 ± 7e-06 kPa and 0.000146 ± 7e-06 kPa
[2], 344.17 K | – | 0.000202 ± 1e-05 kPa and 0.000201 ± 1e-05 kPa and 0.000207 ± 1e-05 kPa
[2], 347.18 K | – | 0.000287 ± 1.4e-05 kPa and 0.000284 ± 1.4e-05 kPa and 0.000277 ± 1.4e-05 kPa
[2], 350.12 K | – | 0.000388 ± 1.9e-05 kPa and 0.000386 ± 1.9e-05 kPa
[2], 353.12 K | – | 0.00052 ± 2.6e-05 kPa and 0.000532 ± 2.7e-05 kPa and 0.000527 ± 2.6e-05 kPa
[2], 356.17 K | – | 0.000715 ± 3.6e-05 kPa and 0.000702 ± 3.5e-05 kPa and 0.00071 ± 3.6e-05 kPa
[2], 359.16 K | – | 0.000964 ± 4.8e-05 kPa and 0.000935 ± 4.7e-05 kPa and 0.000922 ± 4.6e-05 kPa
